The values that follow are results of earlier work, collected in patent publication US6872562B2, “Herbicide resistant dinitrogen fixing bacteria and method of use” (priority 2001, dated 2005).

Each structure is given as a SMILES string.

For the data set, the system named is soybean. Conditions: in vivo; cited from earlier work.

In the case of `CCCN(CCC)c1c([N+](=O)[O-])cc(C(F)(F)F)cc1[N+](=O)[O-]` [Trifuralin], the “Effect on nodulation and N2 fixation” value is “decreases nodulation and N2 fixation”.
